Measurements reported in US20250122504A1, “COMBINATIONS WITH MODULATORS OF PNPLA3 EXPRESSION” (AstraZeneca AB, priority 2021, published 2025).
{GalNAc3} = triantennary N-acetylgalactosamine conjugate

Tests used:
[1] = Body weight change in Pnpla3^148M/M knock-in mice fed a NASH-inducing diet; format: in vivo, mouse; conditions: Pnpla3^148M/M mice, NASH diet 36 weeks, treatment last 14 weeks; ASO 5 mg/kg/week s.c.; Cotadutide 1 nmol/kg daily s.c.; FIG. 1A
Experimental: All animal experiments were performed with humane care and were approved by the Gothenburg Ethics Committee for Experimental Animals in Sweden. The holding facility has received full accreditation from the Association for Assessment and Accreditation of Laboratory Animal Care (AAALAC). The human PNPLA3 […] mutation was introduced into the mouse Pnpla3 gene by replacing the isoleucine codon with a methionine codon in amino acid position 148 of the mouse Pnpla3 gene using homologous recombination as described before (Lindén et al Mol Metab, 2019, DOI: 10.1016/j.molmet.2019.01.013). Heterozygous Pnpla3^148I/M mice were intercrossed to generate experimental homozygous Pnpla3^148M/M knock-in mice for the pharmacology study. […]
Male Pnpla3^148M/M mice (6-8 weeks of age) were fed a diet high in fat (40 kcal % fat (non-trans fat Primex Shortening), fructose (20 kcal %) and cholesterol (2%) (NASH diet; D16022301, Research Diets, New Brunswick, NJ) for 22 weeks. The mice were then assigned to study groups based on body weight, and fed the same NASH diet and dosed with either 1) control ASO+saline, 2) Pnpla3 ASO+saline, 3) control ASO+Cotadutide, or 4) Pnpla3 ASO+Cotadutide for 14 weeks. […] Body weights were recorded during the study. […]

[2] = tested on: Pnpla3^148M/M mice fed a NASH-inducing diet; experiment: NAFLD activity score (NAS) and inflammation score from liver histology; format: in vivo, mouse; conditions: 14 weeks treatment, FIG. 4
Experimental: (§1) Male Pnpla3^148M/M mice (6-8 weeks of age) were fed a diet high in fat (40 kcal % fat (non-trans fat Primex Shortening), fructose (20 kcal %) and cholesterol (2%) (NASH diet; D16022301, Research Diets, New Brunswick, NJ) for 22 weeks. The mice were then assigned to study groups based on body weight, and fed the same NASH diet and dosed with either 1) control ASO+saline, 2) Pnpla3 ASO+saline, 3) control ASO+Cotadutide, or 4) Pnpla3 ASO+Cotadutide for 14 weeks. The ASOs were dosed at 5 mg/kg/week administered by two subcutaneous injections per week with saline as vehicle. Cotadutide was dosed at 1 nmol/kg administered by daily subcutaneous injections with saline as vehicle. […] Body weights were recorded during the study. […]
The NAFLD activity score (NAS) was determined according to the method reported by Kleiner et al (Kleiner et al Hepatology, 2005, DOI: 10.1002/hep.20701). […]
Differences between treatment groups were examined using 1-way ANOVA followed by Tukey's post-hoc tests (GraphPad Prism v.8.0.1., GraphPad Software, CA). Differences between treatment groups for the NAFLD activity score (NAS) derived from liver histology were analyzed by ordinal regression analyses followed by correction of family-wise error rate using the Šidák method. […]

[3] = tested on: Pnpla3^148M/M mice fed a NASH-inducing diet; experiment: Liver fibrosis as liver collagen 1A1 content (immunohistochemistry); format: in vivo, mouse; conditions: 14 weeks treatment, compared to control ASO, FIG. 5
Experimental: as §1
Four μm thick formaldehyde-fixed, paraffin-embedded mouse liver sections (one lover section per mouse) were routinely stained with hematoxylin-eosin (HE). […] Slides were scanned into Panoramic Scan II (3Dhistech, Hungary), and digital images were analyzed using the image analysis program Visiopharm (version 2020.03.0.7300, Visiopharm, Hørsholm, Denmark) by detecting stained area per total section area for Galectin-3 or Collagen 1A1.

mouse Pnpla3 mRNA = experiment: Liver Pnpla3 mRNA by qPCR in Pnpla3^148M/M mice on NASH diet; format: in vivo; conditions: 14 weeks treatment, ASO 5 mg/kg/week s.c., FIG. 1B
Experimental: Male Pnpla3^148M/M mice (6-8 weeks of age) were fed a diet high in fat (40 kcal % fat (non-trans fat Primex Shortening), fructose (20 kcal %) and cholesterol (2%) (NASH diet; D16022301, Research Diets, New Brunswick, NJ) for 22 weeks. The mice were then assigned to study groups based on body weight, and fed the same NASH diet and dosed with either 1) control ASO+saline, 2) Pnpla3 ASO+saline, 3) control ASO+Cotadutide, or 4) Pnpla3 ASO+Cotadutide for 14 weeks. The ASOs were dosed at 5 mg/kg/week administered by two subcutaneous injections per week with saline as vehicle. Cotadutide was dosed at 1 nmol/kg administered by daily subcutaneous injections with saline as vehicle. […] Body weights were recorded during the study. At sacrifice, unfasted mice were euthanized with isoflurane (Forene, Abbot Scandinavia AB, Sweden), blood was collected and plasma isolated, livers were collected, and pieces (same position in the left lateral lobe for all mice) were fixed with 4% formaldehyde in PBS for histology or snap-frozen in liquid N2 and stored at −80° C.
RNA was isolated from snap-frozen liver tissue using the RNeasy Mini Kit (Qiagen, Germany). The cDNA templates were generated by reverse transcription with a cDNA kit (ThermoFisher Scientific, Stockholm, Sweden) and used for real-time quantitative PCR with the QuantStudio 7 Flex instrument (Applied Biosystems, Stockholm, Sweden). […]

## CCCCCCCCCCCCCCCC(=O)N[C@@H](CCC(=O)NCCCC[C@H](NC(=O)[C@H](CC(=O)O)NC(=O)[C@H](CO)NC(=O)[C@@H](NC(=O)[C@H](Cc1ccccc1)NC(=O)[C@@H](NC(=O)CNC(=O)[C@H](CCC(N)=O)NC(=O)[C@H](CO)NC(=O)[C@@H](N)Cc1c[nH]cn1)[C@@H](C)O)[C@@H](C)O)C(=O)N[C@@H](CO)C(=O)N[C@@H](CCC(=O)O)C(=O)N[C@@H](Cc1ccc(O)cc1)C(=O)N[C@@H](CC(C)C)C(=O)N[C@@H](CC(=O)O)C(=O)N[C@@H](CO)C(=O)N[C@@H](CCC(=O)O)C(=O)N[C@@H](CCCNC(=N)N)C(=O)N[C@@H](C)C(=O)N[C@@H](CCCNC(=N)N)C(=O)N[C@@H](CC(=O)O)C(=O)N[C@@H](Cc1ccccc1)C(=O)N[C@H](C(=O)N[C@@H](C)C(=O)N[C@@H](Cc1c[nH]c2ccccc12)C(=O)N[C@@H](CC(C)C)C(=O)N[C@@H](CCC(=O)O)C(=O)N[C@@H](C)C(=O)NCC(=O)NCC(=O)O)C(C)C)C(=O)O [Cotadutide]
[1]
  body weight-gain during the treatment period compared to control ASO treated animals: reduced body weight-gain
[2]
  NAFLD activity score (NAS) compared to control ASO treated animals: reduced the NAS
[3]
  liver fibrosis measured as liver collagen 1A1 content: tended to reduce the liver collagen 1A1 content

## Pnpla3 ASO: mouse cEt-modified 16-mer ASO targeting mouse Pnpla3 gene (5′-TATTTTTGGTGTATCC-3′, SEQ ID NO: 37), 5′-conjugated with triantennary GalNAc3 (5' {GalNAc3}, sugars by position and backbone not given here; cEt-modified)
[1]
  body weight-gain during the treatment period compared to control ASO treated animals: but not Pnpla3 ASO treatment reduced body weight-gain
Mouse Pnpla3 mRNA
  reduction of liver Pnpla3 mRNA levels: ≥ 97%
[2]
  NAFLD activity score (NAS) compared to control ASO treated animals: reduced the NAS
[3]
  liver fibrosis measured as liver collagen 1A1 content: tended to reduce liver fibrosis
